Measurements published in patent US20090176817A1, “Method of Treatment of Diarrhea-Predominant Irritable Bowel Syndrome in a Subject” (priority 2005, published 2009).

Tested on: diarrhea-predominant IBS subjects
Assay: Study S241.3.011: weekly diary questions on adequate relief
Format: in vivo, human
Details: 2 mg TID, ITT; for Number of subjects who were responders during the three-month treatment period: Adequate relief of IBS symptoms / Number of subjects who were responders during the three-month treatment period: Adequate relief of abdominal pain/discomfort / Number of subjects who were responders during the three-month treatment period: Adequate relief of abnormal bowel habits: observed case
Experimental: Study S241.3.011 was a Phase III, double-blind, placebo-controlled, randomized, multinational study to investigate the safety and efficacy of 2 mg TID of cilansetron for a period of 12 weeks followed by a rerandomized, placebo-controlled four-week treatment period, in diarrhea-predominant IBS subjects. The study was conducted in six countries including the US. A total of 2115 subjects consented to participate, and 770 subjects were randomized. A total of 746 subjects were analyzed for efficacy and 755 subjects were analyzed for safety. Diagnosis and main criteria for inclusion were IBS subjects satisfying the Rome I criteria (1992); the diarrhea predominant sub-population of the Rome II criteria; and a minimum abdominal pain/discomfort, stool frequency and consistency determined during the run-in period. Subjects were treated with cilansetron 2 mg tablets given orally TID or matching placebo tablets given orally TID for 12 weeks followed by a rerandomized, placebo-controlled four-week treatment period.
The primary efficacy parameter was the number of months that a subject was a responder for IBS symptoms (abdominal pain, abdominal discomfort, abnormal bowel habits) over the 12-week treatment period. A responder for a month (monthly responder) was defined as a subject who answered the weekly question with “yes” at least twice for that month. The two main secondary efficacy parameters were the monthly responder rates based on the “adequate relief” questions regarding abdominal pain/discomfort and abnormal bowel habits during the 12-week treatment period. The overall response rate and responder rate for the weekly diary questions on adequate relief at each month and all months, the adequate relief rate, the number of subjects with adequate relief by week, daily diary questions, IBS-QOL scores, and the interruption of activities were also assessed. Safety was evaluated by physical examination, ECG, vital signs, laboratory evaluations, concomitant medications, and AEs.
Subjects who were initially randomized to the cilansetron 2 mg TID group and rerandomized to placebo, will be referred to as the C/P treatment group; subjects initially randomized to the placebo group and rerandomized to placebo will be referred to as the P/P treatment group; the P/C and C/C treatment group nomenclature follow the same principle. Of the 591 subjects who completed the three-month treatment period, 576 subjects were rerandomized and thus divided into the following treatment groups: 150 subjects in the C/C treatment group, 140 subjects in the C/P treatment group, 136 subjects in the P/C treatment group, and 150 subjects in the P/P treatment group. Of the 576 subjects rerandomized, a higher percentage of subjects in the C/C treatment group (99%) completed the study compared with the C/P (95%), P/C (93%), and the P/P (95%) treatment groups.
Studies S24 1.3.OO6, S24 1.3.0 1 1, and S24 1.3.009 used the following efficacy measurements: • The subjects answered the following three questions with “yes” or “no” using a phone diary at the end of each week: • a) During the last week, did you experience adequate relief of your IBS symptoms, such as abdominal pain, abdominal discomfort, abnormal bowel habits? • b) During the last week, did you experience adequate relief of your abdominal pain and/or discomfort? • c) During the last week, did you experience adequate relief of your abnormal bowel habits? • The subjects rated the following symptoms using the phone diary at the end of each day: • abdominal pain/discomfort (five-point scale); • stool consistency (seven-point Bristol Stool Scale); • stool frequency (number of bowel movements each day); • urgency (five-point scale); • straining (yes or no); • feeling of incomplete defecation (yes or no); • bloating or feeling of abdominal distension (five-point scale). • In Studies S241 A006 and S241.3.009, subjects completed the IBS-QOL Survey at Baseline (Day 1) and at the end of treatment. […]

[1] = Duration of IBS: >24 months to ≦48 months, monthly LOCF imputation
[2] = Duration of IBS: >24 months to ≦48 months
[3] = Duration of IBS: >48 months to ≦120 months, monthly LOCF imputation
[4] = Duration of IBS: >48 months to ≦120 months
[5] = Duration of IBS: >120 months, monthly LOCF imputation
[6] = Duration of IBS: ≦24 months, monthly LOCF imputation
[7] = Female subjects, three-month treatment period, monthly LOCF

Which “Number of months a subject was a responder during the three-month treatment period: Abnormal bowel habits, Two months” value (from here on “Number … Abnormal bowel habits, Two months”) [1] does the source give for Cc1nccn1C[C@H]1CCc2c(c3cccc4c3n2CCC4)C1=O [Cilansetron, (R)-(−)-4,5,6,8,9,10-hexahydro-10-[(2-methyl-1H-imidazol-1-yl)methyl]-11H-pyrido-[3,2,1-jk]-carbazol-11-one] here?
The value was 10 (14) n (%).

And the “Number of months a subject was a responder during the three-month treatment period: Abnormal bowel habits, Zero months” value (“Number … Abnormal bowel habits, Zero months” for short) [1]?
The value was 20 (28) n (%).

And the “Number of months a subject was a responder during the three-month treatment period: IBS symptoms, One month” value (from here on “Number … IBS symptoms, One month”) [1]?
The value was 7 (10) n (%).

And the “Number of months a subject was a responder during the three-month treatment period: IBS symptoms, Three months” value (shortened to “Number … IBS symptoms, Three months”) [1]?
The value was 32 (44) n (%).

And the “Number of months a subject was a responder during the three-month treatment period: IBS symptoms, Two months” value (shortened to “Number … IBS symptoms, Two months”) [1]?
Its value is 16 (22) n (%).

What about the “Number of months a subject was a responder during the three-month treatment period: IBS symptoms, Zero months” value (“Number … IBS symptoms, Zero months” for short) [1] of the same compound?
The value was 17 (24) n (%).

And the “Number of subjects who were responders during the three-month treatment period: Adequate relief of IBS symptoms” value (“Number … of IBS symptoms” for short) [2]?
Its value is 44 (61) n (%).

What about the “Number of subjects who were responders during the three-month treatment period: Adequate relief of abdominal pain/discomfort” value (shortened to “Number … of abdominal pain/discomfort”) [2] of the same compound?
Its value is 44 (61) n (%).

And the “Number of subjects who were responders during the three-month treatment period: Adequate relief of abnormal bowel habits” value (“Number … of abnormal bowel habits” for short) [2]?
The value was 43 (60) n (%).

And the “Number of months a subject was a responder during the three-month treatment period: Abdominal pain/discomfort, One month” value [3]?
The value was 15 (11) n (%).

And the “Number of months a subject was a responder during the three-month treatment period: Abdominal pain/discomfort, Three months” value [3]?
Its value is 61 (46) n (%).

And the “Number of months a subject was a responder during the three-month treatment period: Abdominal pain/discomfort, Two months” value [3]?
The value was 23 (17) n (%).

And the “Number of months a subject was a responder during the three-month treatment period: Abdominal pain/discomfort, Zero months” value [3]?
The value was 34 (26) n (%).

What about the “Number of months a subject was a responder during the three-month treatment period: Abnormal bowel habits, One month” value (“Number … Abnormal bowel habits, One month” below) [3] of the same compound?
Its value is 15 (11) n (%).

And the “Number of months a subject was a responder during the three-month treatment period: Abnormal bowel habits, Three months” value (shortened to “Number … Abnormal bowel habits, Three months”) [3]?
Its value is 50 (38) n (%).

And the “Number … Abnormal bowel habits, Two months” value [3]?
The value was 29 (22) n (%).

And the “Number … Abnormal bowel habits, Zero months” value [3]?
The value was 39 (29) n (%).

What about the “Number … IBS symptoms, One month” value [3] of the same compound?
Its value is 19 (14) n (%).

And the “Number … IBS symptoms, Three months” value [3]?
The value was 50 (38) n (%).

And the “Number … IBS symptoms, Two months” value [3]?
Its value is 26 (20) n (%).

And the “Number … IBS symptoms, Zero months” value [3]?
Its value is 38 (29) n (%).

And the “Number … of IBS symptoms” value [4]?
Its value is 69 (52) n (%).

And the “Number … of abdominal pain/discomfort” value [4]?
Its value is 79 (59) n (%).

What about the “Number … of abnormal bowel habits” value [4] of the same compound?
Its value is 69 (52) n (%).

And the “Number of months a subject was a responder during the three-month treatment period: Abdominal paint/discomfort, One month” value [5]?
Its value is 13 (13) n (%).

And the “Number of months a subject was a responder during the three-month treatment period: Abdominal paint/discomfort, Three months” value [5]?
Its value is 39 (38) n (%).

And the “Number of months a subject was a responder during the three-month treatment period: Abdominal paint/discomfort, Two months” value [5]?
The value was 18 (18) n (%).

And the “Number of months a subject was a responder during the three-month treatment period: Abdominal paint/discomfort, Zero months” value [5]?
The value was 32 (31) n (%).

What about the “Number … Abnormal bowel habits, One month” value [5] of the same compound?
The value was 17 (17) n (%).

And the “Number … Abnormal bowel habits, Three months” value [5]?
The value was 37 (36) n (%).

And the “Number … Abnormal bowel habits, Two months” value [5]?
Its value is 12 (12) n (%).

What about the “Number … Abnormal bowel habits, Zero months” value [5] of the same compound?
Its value is 36 (35) n (%).

What about the “Number … IBS symptoms, One month” value [5] of the same compound?
The value was 17 (17) n (%).

And the “Number … IBS symptoms, Three months” value [5]?
The value was 38 (37) n (%).

What about the “Number … IBS symptoms, Two months” value [5] of the same compound?
Its value is 12 (12) n (%).

And the “Number … IBS symptoms, Zero months” value [5]?
Its value is 35 (34) n (%).

What about the “Number … of IBS symptoms” value (Duration of IBS: >120 months) of the same compound?
Its value is 48 (47) n (%).

What about the “Number … of abdominal pain/discomfort” value (Duration of IBS: >120 months) of the same compound?
Its value is 55 (54) n (%).

What about the “Number … of abnormal bowel habits” value (Duration of IBS: >120 months) of the same compound?
The value was 46 (45) n (%).

What about the “Number of months a subject was a responder during the three-month treatment period: Abdominal pain/discomfort, One month” value [6] of the same compound?
Its value is 7 (10) n (%).

What about the “Number of months a subject was a responder during the three-month treatment period: Abdominal pain/discomfort, Three months” value [6] of the same compound?
The value was 27 (39) n (%).

What about the “Number of months a subject was a responder during the three-month treatment period: Abdominal pain/discomfort, Two months” value [6] of the same compound?
Its value is 16 (23) n (%).

What about the “Number of months a subject was a responder during the three-month treatment period: Abdominal pain/discomfort, Zero months” value [6] of the same compound?
The value was 20 (29) n (%).

What about the “Number … Abnormal bowel habits, One month” value [6] of the same compound?
The value was 8 (11) n (%).

And the “Number … Abnormal bowel habits, Three months” value [6]?
Its value is 30 (43) n (%).

What about the “Number … Abnormal bowel habits, Two months” value [6] of the same compound?
Its value is 15 (21) n (%).

And the “Number … Abnormal bowel habits, Zero months” value [6]?
The value was 17 (24) n (%).

And the “Number … IBS symptoms, One month” value [6]?
Its value is 11 (16) n (%).

What about the “Number … IBS symptoms, Three months” value [6] of the same compound?
Its value is 28 (40) n (%).

And the “Number … IBS symptoms, Two months” value [6]?
The value was 16 (23) n (%).

And the “Number … IBS symptoms, Zero months” value [6]?
Its value is 15 (21) n (%).

What about the “Number … of IBS symptoms” value (Duration of IBS: ≦24 months) of the same compound?
The value was 45 (64) n (%).

And the “Number … of abdominal pain/discomfort” value (Duration of IBS: ≦24 months)?
Its value is 43 (61) n (%).

And the “Number … of abnormal bowel habits” value (Duration of IBS: ≦24 months)?
The value was 45 (64) n (%).

What about the “Number of months a subject was a responder: One month (Abdominal pain/discomfort)” value [7] of the same compound?
The value was 30 (11) n (%).

What about the “Number of months a subject was a responder: One month (Abnormal bowel habits)” value [7] of the same compound?
Its value is 34 (13) n (%).

And the “Number of months a subject was a responder: One month (IBS symptoms)” value [7]?
The value was 35 (13) n (%).

What about the “Number of months a subject was a responder: Three months (Abdominal pain/discomfort)” value [7] of the same compound?
The value was 101 (39) n (%).
